Measurements taken from paper PMC13168289, “Potent acridone antimalarial against all three life stages of Plasmodium” (Nature Communications, 2026).
Several values for one entry are separate records, joined by “and”; a condition that tells them apart may be missing. Equal values may be shown once. Read-outs that look alike come from different tables or passages of the source.

How the values were obtained:
[1] = test system: P. yoelii wild type, ATV^r and ELQ-300^r clones; test: 4-day suppression model with ATV- and ELQ-300-resistant clones; type: in vivo, P. yoelii in CF1 mice; details: (95% CI)
Source text: Animals were housed at the VAPORHCS in Thoren Maxi-Miser microisolator cages (78 sq. in. floor space) with a maximum density of five females or four males per cage. Cages were maintained on a 12-h light/dark cycle and provided with autoclaved nesting materials (nestlets) for environmental enrichment. All mice had ad libitum access to food and water. Four- to five-week-old female and male outbred CF1 mice (Charles River Laboratories, Raleigh, NC, USA) were randomly assigned to treatment and control groups using a simple randomization procedure (e.g., computer-generated random numbers) to ensure balanced distribution of baseline body weights and starting parasitemia levels across all cohorts. Groups of four mice (n = 4, mean body weight of each group was ~30 g) were infected intravenously with 3.5 × 10^4 P. yoelii (Kenya strain, MRA-428) from a donor animal. Drug administration commenced the day after the animals were inoculated (Day 1). The test drug or the drug combination was dissolved in PEG-400 and administered by oral gavage once daily for 4 successive days in the 4-day suppression model, but only once on Day 1 in the single-dose cure model. Blood was collected via the tail vein with the aid of a syringe needle on Day 5 and then at weekly intervals through Day 28. Blood films were Giemsa-stained and examined microscopically to determine the level of parasitemia. All mice were observed daily to assess clinical signs. Animals with observable parasitemia following the experiments were euthanized; animals cleared of parasitemia from their bloodstream were observed daily with assessment of parasitemia performed weekly until Day 28, at which point, the animal(s) were scored as cured of the infection and then humanely euthanized. All treated mice with a negative smear on Day 28 were considered cured (100% protection).
(§1) Drug susceptibility assays against P. falciparum strains were performed using a SYBR Green based assay. D6 and Dd2 were obtained from MR4. Tm90-C2B was obtained from WRAIR. Dd2-D1^I22L and ELQ-300 were obtained from VAPORHCS. D10yDHODH was obtained as a courtesy from Dr. Akhil Vaidya at Drexel University. P. yoelii ATV^r and ELQ-300^r clones were obtained from VAPORHCS.

[2] = test system: P. falciparum mutant T111 lines; test: drug susceptibility of T111-selected cyt b mutant lines; type: cell-based, Plasmodium falciparum
Experimental: DNA extractions were performed on clonal parasites using the QIAamp DNA extraction kit (QIAGEN Inc, Valencia, CA) or ZYMO Quick gDNA Miniprep kit (Zymo Research Corp, Irvine, CA). For sequencing of the open reading frame of pfcytb, PCR was performed with genomic DNA using forward and reverse flanking primers for cyt b primer 1: 5’-[…]-3’ and primer 2: 5’-[…]-3’. PCR products were subjected to enzymatic cleanup with ExoSAP-IT (Thermo Fisher Scientific) and sent for Sanger sequencing (Eurofins Genomics, Louisville, KY) with PCR primer 2 paired with an internal forward primer: 5’-[…]-3’ and an internal reverse primer: 5’-[…]-3’. Sequences were assembled using 4Peaks software (Nucleobytes, Amsterdam, Netherlands) and aligned with Clustal Omega (EMBL-EBI). For sequencing of the open reading frame of pfdhodh, PCR was performed with genomic DNA using forward primer: 5’-[…]-3’ and reverse primer: 5’-[…]-3’. PCR products were prepared for Sanger sequencing and analyzed as described above, except using two forward primers: 5’-[…]-3’ and 5’-[…]-3’ and with two reverse primers: 5’-[…]-3’ and 5’-[…]-3’.
as §1

[3] = test system: P. falciparum NF54 oocyst development in mosquitoes; test: standard membrane feeding assay (SMFA); type: in vivo, P. falciparum in Anopheles stephensi; details: drug in blood meal
Experimental: The SMFA assay was performed using P. falciparum NF54 gametocytes produced in vitro[35]. P. falciparum NF54 gametocytes were grown in human blood cultured in RPMI 1640 GlutaMax medium (Gibco) supplemented with 25 mM HEPES, hypoxanthine, and human serum. De-identified human blood and serum were obtained from the Australian Red Cross Blood Service. Mature (stage V) gametocytes were quantified in Giemsa-stained blood smears. Immediately prior to infection, a feeding mixture comprising 45% human serum and 55% human blood containing 0.15% stage V gametocytes and the desired concentration of drug or vehicle control, was prepared and maintained at 37 °C. Adult female Anopheles stephensi (MR4) mosquitoes reared under the standard insectary conditions[79] were placed in mesh-topped cups and allowed to feed on the gametocyte mixtures in prewarmed glass feeders wrapped with parafilm. […] Mosquito midguts were dissected 7 days after infection, stained in 0.2% mercurochrome, and oocysts were counted using a light microscope.

[4] = test system: P. cynomolgi hypnozoites and schizonts; test: in vitro liver-stage P. cynomolgi assay in primary rhesus hepatocytes; type: cell-based, Plasmodium cynomolgi
Experimental: The liver-stage P. cynomolgi assay was designed to identify anti-hypnozoite drugs utilizing a 384-well in vitro culture system[31],[37]. Briefly, cryopreserved primary simian hepatocytes (donor lots XGB, OQB, and QHO: BioIVT, Inc.) were seeded in collagen-coated 384-well plates and infected with P. cynomolgi bastianellii (B strain) sporozoites dissected from infected Anopheles dirus mosquitoes. Test compounds were solubilized in 100% DMSO and serially diluted 2-fold to generate up to a 12-point dose-response curve, maintaining a final DMSO concentration of 0.1% across all wells. Two distinct treatment modes were evaluated. For the prophylactic assay, to assess the prevention of infection, compound exposure began 1-hour post-infection with daily media changes on Days 1 and 2. For the radical cure assay, to assess activity against established liver forms, drugs were administered daily from Day 4 through Day 7 post-infection. […] For readout on Day 8, plates were fixed and stained via immunofluorescence to visualize parasite forms (hypnozoites and schizonts) and hepatocyte nuclei, and images were acquired using an Operetta CLS high-content imaging system (PerkinElmer). Host hepatocyte viability was measured in parallel to determine compound toxicity. Parasite forms were automatically quantified using Harmony 4.9 software, and percent inhibition and toxicity were calculated relative to in-plate DMSO vehicle controls. IC50 and CC50 (half-maximal cytotoxic concentrations) were determined by fitting dose-response data to a four-parameter logistic (variable slope) model using a custom Python script incorporating a grid search algorithm.

[5] = test system: P. falciparum D6, Dd2, Tm90-C2B, Dd2-D1^I22L, D10yDHODH; test: microbe, parasite or virus in culture; type: cell-based, Plasmodium falciparum
Experimental: as §1

Compound: O=c1c2ccc(Oc3ccc(OC(F)(F)F)cc3)cc2[nH]c2cc(Cl)cc(F)c12 [T111]
- ED50 ([1]; P. yoelii ATVrY268S): 0.31 (0.29–0.34) mg/kg/day and 0.31 mg/kg/day
- ED50 ([1]; P. yoelii ELQ-300rI22L): 0.25 (0.21–0.30) mg/kg/day and 0.25 mg/kg/day
- ED50 ([1]; P. yoelii wild type): 0.24 (0.20–0.29) mg/kg/day and 0.24 mg/kg/day
- IC50 ([2]; Dd2-A^131S-140I-259L-264L, read-out: inhibition IC50 vs P. falciparum): 98 ± 12 nM
- IC50 ([2]; Dd2-A^131S-140I-259L, read-out: inhibition IC50 vs P. falciparum): 74 ± 5.1 nM
- IC50 ([2]; Dd2-B^87V-131S-140I-259L, read-out: inhibition IC50 vs P. falciparum): 129 ± 6.3 nM
- IC50 ([2]; Dd2-B^131S-140I-259L-264L, read-out: inhibition IC50 vs P. falciparum): 114 ± 13 nM
- IC50 ([2]; Dd2-C0^119L-131S-259L (pfdhodh mutation), read-out: inhibition IC50 vs P. falciparum): 144 ± 12 nM
- IC50 ([2]; Dd2-C1^131S-140I-259L (pfdhodh mutation), read-out: inhibition IC50 vs P. falciparum): 223 ± 36 nM
- IC50 ([2]; Dd2, read-out: inhibition IC50 vs P. falciparum): 0.15 ± 0.023 nM
- IC50 ([2]; Dd2^131S-259L, read-out: inhibition IC50 vs P. falciparum): 12 ± 2.5 nM
- IC50 ([2]; Dd2^131S, read-out: inhibition IC50 vs P. falciparum): 0.78 ± 0.081 nM
- IC50 ([2]; Dd2^259L, read-out: inhibition IC50 vs P. falciparum): 4.4 ± 0.71 nM
- concentration that eliminated oocyst formation [3]: 4.0 ng/mL and 9.5 nM
- IC50 ([4]; prophylactic mode, hypnozoite, read-out: inhibition IC50): 93 nM
- IC50 ([4]; prophylactic mode, schizont, read-out: inhibition IC50): 18 nM
- residual population of hypnozoites ([4]; radical cure mode, highest concentrations tested): 10-20%
- IC50 ([4]; radical cure mode, hypnozoite, read-out: inhibition IC50): 500 nM
- IC50 ([4]; radical cure mode, schizont, read-out: inhibition IC50): 280 nM
- IC50 ([5]; D6, read-out: in vitro IC50 vs P. falciparum): 0.028 ± 0.00036 nM
- IC50 ([5]; D10yDHODH, read-out: in vitro IC50 vs P. falciparum): > 2500 nM
- IC50 ([5]; Dd2, read-out: in vitro IC50 vs P. falciparum): 0.042 ± 0.0042 nM
- IC50 ([5]; Tm90-C2B (cyt b Y268S, ATV-resistant), read-out: in vitro IC50 vs P. falciparum): 4 ± 0.076 nM

Compound: O=C1C(O)=C([C@H]2CC[C@H](c3ccc(Cl)cc3)CC2)C(=O)c2ccccc21 [ATV, atovaquone]
- ED50 ([1]; P. yoelii ATVrY268S): 15.3 (9.9–24) mg/kg/day
- ED50 ([1]; P. yoelii ELQ-300rI22L): 0.068 (0.053–0.087) mg/kg/day
- ED50 ([1]; P. yoelii wild type): 0.064 (0.049–0.085) mg/kg/day
- IC50 ([2]; Plasmodium falciparum, DD2, read-out: inhibition IC50 vs P. falciparum, Dd2): 0.44 ± 0.052 nM
- IC50 ([2]; Plasmodium falciparum, DD2, read-out: inhibition IC50 vs P. falciparum, Dd2-A^131S-140I-259L): 4.7 ± 0.44 nM
- IC50 ([2]; Plasmodium falciparum, DD2, read-out: inhibition IC50 vs P. falciparum, Dd2-A^131S-140I-259L-264L): 15 ± 2 nM
- IC50 ([2]; Plasmodium falciparum, DD2, read-out: inhibition IC50 vs P. falciparum, Dd2-B^87V-131S-140I-259L): 10 ± 1.4 nM
- IC50 ([2]; Plasmodium falciparum, DD2, read-out: inhibition IC50 vs P. falciparum, Dd2-B^131S-140I-259L-264L): 11 ± 1.8 nM
- IC50 ([2]; Plasmodium falciparum, DD2, read-out: inhibition IC50 vs P. falciparum, Dd2-C0^119L-131S-259L (pfdhodh mutation)): 15 ± 0.46 nM
- IC50 ([2]; Plasmodium falciparum, DD2, read-out: inhibition IC50 vs P. falciparum, Dd2-C1^131S-140I-259L (pfdhodh mutation)): 25 ± 7.2 nM
- IC50 ([2]; Plasmodium falciparum, DD2, read-out: inhibition IC50 vs P. falciparum, Dd2^131S): 0.34 ± 0.049 nM
- IC50 ([2]; Plasmodium falciparum, DD2, read-out: inhibition IC50 vs P. falciparum, Dd2^131S-259L): 1.5 ± 0.17 nM
- IC50 ([2]; Plasmodium falciparum, DD2, read-out: inhibition IC50 vs P. falciparum, Dd2^259L): 6.6 ± 1.9 nM
- IC50 ([4]; Plasmodium cynomolgi, Hepatocyte, in Macaca mulatta, prophylactic mode, hypnozoite, read-out: inhibition IC50): > 1200 nM
- IC50 ([4]; Plasmodium cynomolgi, Hepatocyte, in Macaca mulatta, prophylactic mode, schizont, read-out: inhibition IC50): 9.3 nM
- IC50 ([4]; Plasmodium cynomolgi, Hepatocyte, in Macaca mulatta, radical cure mode, hypnozoite, read-out: inhibition IC50): 2460 nM
- IC50 ([4]; Plasmodium cynomolgi, Hepatocyte, in Macaca mulatta, radical cure mode, schizont, read-out: inhibition IC50): 2250 nM
- IC50 ([4]; Plasmodium cynomolgi, Hepatocyte, in Macaca mulatta, summary in response to reviewers, read-out: IC50 values against hypnozoites): > 2000 nM
- IC50 ([5]; Plasmodium falciparum, read-out: in vitro IC50 vs P. falciparum, D6): 0.073 ± 0.01 nM
- IC50 ([5]; Plasmodium falciparum, read-out: in vitro IC50 vs P. falciparum, D10yDHODH): > 2500 nM
- IC50 ([5]; Plasmodium falciparum, read-out: in vitro IC50 vs P. falciparum, Dd2): 0.13 ± 0.012 nM
- IC50 ([5]; Plasmodium falciparum, read-out: in vitro IC50 vs P. falciparum, Dd2-D1^I22L (ELQ-300-resistant)): 0.007 ± 0.0025 nM
- IC50 ([5]; Plasmodium falciparum, read-out: in vitro IC50 vs P. falciparum, Tm90-C2B (cyt b Y268S, ATV-resistant)): 8538 ± 65 nM
